± gives the expanded uncertainty stated by the source.
Tests used:
[1] = refractive index (Na D-line) (dimensionless); settings: 298.15 K; 101.33 kPa; Liquid; Standard Abbe refractometry
[2] = 101 kPa, Liquid
[3] = xn = mol fraction of the nth substance listed; settings: 101 kPa, Liquid

Cc1ccccc1 [toluene]
Settings | refractive index
[1] | 1.4941 ± 0.0007

[2]
Settings | mass density [kg/m3]
298.15 K | 862.29 ± 0.34
308.15 K | 852.86 ± 0.36
318.15 K | 843.6 ± 0.37
328.15 K | 834.29 ± 0.39

Cc1cccc(C)c1 [1,3-dimethylbenzene]
Settings | refractive index
[1] | 1.4945 ± 0.0008

[2]
Settings | mass density [kg/m3]
298.15 K | 859.85 ± 0.49
308.15 K | 851.2 ± 0.5
318.15 K | 842.66 ± 0.51
328.15 K | 834.13 ± 0.52

Cc1cc(C)cc(C)c1 [1,3,5-trimethylbenzene]
Settings | refractive index
[1] | 1.4967 ± 0.0008

[2]
Settings | mass density [kg/m3]
298.15 K | 861.13 ± 0.49
308.15 K | 852.89 ± 0.5
318.15 K | 844.78 ± 0.51
328.15 K | 836.65 ± 0.52

c1ccccc1 [benzene] + CCCCCCCC
[3], x2 = 0
Settings | mass density [kg/m3]
298.15 K | 873.62 ± 0.34
308.15 K | 863.01 ± 0.35
318.15 K | 852.16 ± 0.37
328.15 K | 841.49 ± 0.39

CCCCCCCC [octane] + Cc1ccccc1
mass density [kg/m3], [3]
Settings | 298.15 K | 308.15 K | 318.15 K | 328.15 K
x1 = 0.0654 | 845.89 ± 0.37 | 836.6 ± 0.38 | – | –
x1 = 0.0675 | – | – | 826.95 ± 0.4 | 817.77 ± 0.41
x1 = 0.1229 | – | – | 814.22 ± 0.42 | 805.12 ± 0.43
x1 = 0.1283 | 831.23 ± 0.39 | 822.06 ± 0.41 | – | –
x1 = 0.1979 | 816.17 ± 0.42 | 807.1 ± 0.43 | – | –
x1 = 0.2052 | – | – | 796.69 ± 0.45 | 787.73 ± 0.46
x1 = 0.2524 | 805.13 ± 0.43 | 796.14 ± 0.45 | – | –
x1 = 0.2613 | – | – | 785.56 ± 0.47 | 776.68 ± 0.48
x1 = 0.312 | 793.74 ± 0.45 | 784.82 ± 0.47 | – | –
x1 = 0.3142 | – | – | 775.67 ± 0.48 | 766.87 ± 0.5
x1 = 0.3931 | 779.27 ± 0.48 | 770.46 ± 0.49 | – | –
x1 = 0.398 | – | – | 761 ± 0.51 | 752.32 ± 0.52
x1 = 0.4544 | 769.05 ± 0.5 | 760.31 ± 0.51 | – | –
x1 = 0.4553 | – | – | 751.61 ± 0.52 | 743.01 ± 0.54
x1 = 0.5388 | – | – | 738.82 ± 0.54 | 730.32 ± 0.56
x1 = 0.5409 | 755.59 ± 0.52 | 746.93 ± 0.53 | – | –
x1 = 0.6029 | 746.56 ± 0.53 | 737.98 ± 0.55 | – | –
x1 = 0.6078 | – | – | 728.94 ± 0.56 | 720.55 ± 0.57
x1 = 0.6679 | – | – | 720.81 ± 0.57 | 712.48 ± 0.59
x1 = 0.6717 | 737.09 ± 0.55 | 728.58 ± 0.56 | – | –
x1 = 0.7202 | 730.75 ± 0.56 | 722.3 ± 0.57 | – | –
x1 = 0.7262 | – | – | 713.32 ± 0.59 | 705.06 ± 0.6
x1 = 0.7985 | – | – | 704.51 ± 0.6 | 696.33 ± 0.62
x1 = 0.8064 | 720.08 ± 0.58 | 711.7 ± 0.59 | – | –
x1 = 0.863 | – | – | 697.07 ± 0.62 | 688.97 ± 0.63
x1 = 0.8727 | 712.36 ± 0.59 | 704.05 ± 0.61 | – | –
x1 = 0.9143 | – | – | 691.43 ± 0.63 | 683.39 ± 0.64
x1 = 0.9312 | 705.88 ± 0.61 | 697.62 ± 0.62 | – | –
x1 = 1 | 698.61 ± 0.62 | 690.44 ± 0.63 | 682.49 ± 0.64 | 674.55 ± 0.66

c1ccccc1 [benzene]
Settings | refractive index
[1] | 1.4979 ± 0.0007

[2]
Settings | mass density [kg/m3]
298.15 K | 873.62 ± 0.34
308.15 K | 863.01 ± 0.35
318.15 K | 852.16 ± 0.37
328.15 K | 841.49 ± 0.39

Cc1cccc(C)c1 [1,3-dimethylbenzene] + CCCCCCCC
[3]
Settings | mass density [kg/m3]
298.15 K, x2 = 0 | 859.85 ± 0.49
298.15 K, x2 = 0.06642 | 845.86 ± 0.5
298.15 K, x2 = 0.1397 | 831.1 ± 0.51
298.15 K, x2 = 0.2052 | 818.49 ± 0.52
298.15 K, x2 = 0.276 | 805.42 ± 0.52
298.15 K, x2 = 0.323 | 797.05 ± 0.53
298.15 K, x2 = 0.3982 | 784.13 ± 0.54
298.15 K, x2 = 0.4618 | 773.65 ± 0.55
298.15 K, x2 = 0.5432 | 760.8 ± 0.56
298.15 K, x2 = 0.5993 | 752.28 ± 0.57
298.15 K, x2 = 0.6755 | 741.14 ± 0.58
298.15 K, x2 = 0.7284 | 733.68 ± 0.58
298.15 K, x2 = 0.7851 | 725.91 ± 0.59
298.15 K, x2 = 0.8583 | 716.27 ± 0.6
298.15 K, x2 = 0.925 | 707.79 ± 0.61
308.15 K, x2 = 0 | 851.2 ± 0.5
308.15 K, x2 = 0.06642 | 837.23 ± 0.51
308.15 K, x2 = 0.1397 | 822.5 ± 0.52
308.15 K, x2 = 0.2052 | 809.92 ± 0.53
308.15 K, x2 = 0.276 | 796.89 ± 0.54
308.15 K, x2 = 0.323 | 788.53 ± 0.54
308.15 K, x2 = 0.3954 | 776.12 ± 0.55
308.15 K, x2 = 0.4618 | 765.21 ± 0.56
308.15 K, x2 = 0.5432 | 752.4 ± 0.57
308.15 K, x2 = 0.5993 | 743.9 ± 0.58
308.15 K, x2 = 0.6755 | 732.79 ± 0.59
308.15 K, x2 = 0.7284 | 725.36 ± 0.6
308.15 K, x2 = 0.7851 | 717.64 ± 0.6
308.15 K, x2 = 0.8583 | 708.01 ± 0.61
308.15 K, x2 = 0.925 | 699.57 ± 0.62
318.15 K, x2 = 0 | 842.66 ± 0.51
318.15 K, x2 = 0.0687 | 828.23 ± 0.52
318.15 K, x2 = 0.1168 | 818.54 ± 0.53
318.15 K, x2 = 0.207 | 801.13 ± 0.54
318.15 K, x2 = 0.2651 | 790.45 ± 0.55
318.15 K, x2 = 0.3289 | 779.13 ± 0.55
318.15 K, x2 = 0.4087 | 765.6 ± 0.56
318.15 K, x2 = 0.4672 | 756.08 ± 0.57
318.15 K, x2 = 0.5321 | 745.88 ± 0.58
318.15 K, x2 = 0.6067 | 734.61 ± 0.59
318.15 K, x2 = 0.6634 | 726.39 ± 0.6
318.15 K, x2 = 0.7288 | 717.2 ± 0.61
318.15 K, x2 = 0.7923 | 708.59 ± 0.62
318.15 K, x2 = 0.8634 | 699.33 ± 0.63
318.15 K, x2 = 0.9502 | 688.48 ± 0.64
328.15 K, x2 = 0 | 834.13 ± 0.52
328.15 K, x2 = 0.0687 | 819.75 ± 0.53
328.15 K, x2 = 0.1168 | 810.1 ± 0.54
328.15 K, x2 = 0.207 | 792.73 ± 0.55
328.15 K, x2 = 0.2651 | 782.09 ± 0.56
328.15 K, x2 = 0.3289 | 770.81 ± 0.56
328.15 K, x2 = 0.4087 | 757.32 ± 0.58
328.15 K, x2 = 0.4672 | 747.81 ± 0.58
328.15 K, x2 = 0.5287 | 738.2 ± 0.59
328.15 K, x2 = 0.6067 | 726.45 ± 0.6
328.15 K, x2 = 0.6634 | 718.26 ± 0.61
328.15 K, x2 = 0.7288 | 709.11 ± 0.62
328.15 K, x2 = 0.7923 | 700.55 ± 0.63
328.15 K, x2 = 0.8634 | 691.33 ± 0.64
328.15 K, x2 = 0.9502 | 680.52 ± 0.65

Source: the NIST ThermoML archive (doi:10.1016/j.jct.2007.10.010)
